Read-outs that look alike come from different tables or passages of the source.
Legend:
[1] = target: T1, ABHD2^L33–E425 (Homo sapiens, UniProt P08910); assay: ABHD2^L33-E425 fluorometric enzymatic activity assay with 7-HCA substrate; assay type: biochemical
T1 construct: expression for ABHD2 amino acids L33–E425, in which a predicted transmembrane domain (amino acids 1–32) is removed; His6-FLAG (N); made in house; host or cells: E. coli BL21(DE3)-R3-pRARE2
T1 sequence (P08910 33-425): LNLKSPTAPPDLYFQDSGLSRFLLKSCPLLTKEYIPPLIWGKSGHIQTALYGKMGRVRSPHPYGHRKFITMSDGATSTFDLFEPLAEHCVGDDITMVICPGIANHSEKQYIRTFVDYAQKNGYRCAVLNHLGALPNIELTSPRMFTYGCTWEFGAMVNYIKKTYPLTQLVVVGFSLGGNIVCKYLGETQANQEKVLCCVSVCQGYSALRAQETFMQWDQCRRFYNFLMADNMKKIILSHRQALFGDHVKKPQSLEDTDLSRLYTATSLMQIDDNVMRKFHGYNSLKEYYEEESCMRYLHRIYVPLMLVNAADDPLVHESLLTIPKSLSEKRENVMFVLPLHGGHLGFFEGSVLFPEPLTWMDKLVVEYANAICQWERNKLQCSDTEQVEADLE

[2] = target: T2, full-length human ABHD2 (ABHD2^FL) (Homo sapiens, UniProt P08910); assay: ABHD2^FL enzymatic activity assay with 7-HCA substrate; assay type: biochemical
T2 construct: TEV site-eGFP-8xHis (C, cleaved yes); made in house; host or cells: SF9 insect cells (baculovirus)
T2 sequence (P08910 1-425): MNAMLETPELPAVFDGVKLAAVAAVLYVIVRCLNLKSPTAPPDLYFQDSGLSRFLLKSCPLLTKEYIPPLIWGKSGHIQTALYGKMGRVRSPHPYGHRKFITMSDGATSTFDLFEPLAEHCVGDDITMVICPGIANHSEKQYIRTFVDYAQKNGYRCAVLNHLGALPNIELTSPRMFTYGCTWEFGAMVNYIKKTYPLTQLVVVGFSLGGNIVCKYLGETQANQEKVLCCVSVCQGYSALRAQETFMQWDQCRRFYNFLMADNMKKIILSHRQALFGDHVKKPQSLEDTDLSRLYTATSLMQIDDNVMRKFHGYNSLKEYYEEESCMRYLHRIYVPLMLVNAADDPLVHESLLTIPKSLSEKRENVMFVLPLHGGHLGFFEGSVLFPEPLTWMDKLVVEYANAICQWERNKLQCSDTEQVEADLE

[3] = target: T1, ABHD2^L33–E425; assay: Differential scanning fluorimetry (DSF) with purified ABHD2^L33–E425; assay type: binding; conditions: 40 µM steroid, 30 min pre-incubation
[4] = test system: CatSper; conditions: cited from earlier work
[5] = 5 µM steroid or triterpenoid, 300 nM 7-HCA
[6] = 7-HCA and RB substrates (Suppl. Fig. S4A,B), weak effects at ≥5 µM

Molecule	effect on enzymatic activity of purified ABHD2^L33–E425 [1, 5]	effect on heat-induced denaturation of ABHD2^L33–E425 (DSF binding) [3]	effect on enzymatic activity of purified ABHD2^L33–E425 [1]	effect on enzymatic activity of purified ABHD2^FL [2]	also measured
CCCCC/C=C\C/C=C\C/C=C\C/C=C\CCCC(=O)Oc1ccc2ccc(=O)oc2c1 [Compound 7-HCA, 7-hydroxycoumarinyl arachidonate]	–	–	–	–	kcat of substrate hydrolysis by ABHD2^L33–E425 [1]: 2.8 pmol substrate/min/pmol enzyme; Km ([1]; read-out: Km of substrate hydrolysis by ABHD2^L33–E425): 0.28 µM; Km ([2]; read-out: Km of substrate hydrolysis by ABHD2^FL): 59 µM
CC(C)CCC[C@@H](C)[C@H]1CC[C@H]2[C@@H]3CC=C4C[C@@H](O)CC[C@]4(C)[C@H]3CC[C@]12C [cholesterol]	did not alter	did not affect	–	–	effect on enzymatic activity of purified ABHD2^FL [2, 6]: did not alter
C[C@]12CCC(=O)C=C1CC[C@@H]1[C@@H]2[C@@H](O)C[C@@]2(C)[C@H]1CC[C@]2(O)C(=O)CO [hydrocortisone]	did not alter	did not affect	–	–	effect on enzymatic activity of purified ABHD2^FL [2, 6]: did not alter
C=C(C)[C@@H]1CC[C@]2(C)CC[C@]3(C)[C@H](CC[C@@H]4[C@@]5(C)CC[C@H](O)C(C)(C)[C@@H]5CC[C@]43C)[C@@H]12 [lupeol]	weak inhibitory action	did not affect	–	–	progesterone-induced CatSper activation ([4]; ref Brenker et al., 2018, Rehfeld, 2020, Rehfeld and Marcus Pedersen, 2022): do not interfere; progesterone-induced Ca2+ influx and hyperactivation ([4]; ref Mannowetz et al., 2017): inhibitors
COC(=O)[C@]1(C)CC[C@]2(C)CC[C@]3(C)C4=CC=C5C(=CC(=O)C(O)=C5C)[C@]4(C)CC[C@@]3(C)[C@@H]2C1 [pristimerin]	–	–	did not affect	did not affect	progesterone-induced Ca2+ influx and hyperactivation [4]: inhibitors; progesterone-induced CatSper activation [4]: do not interfere
C[C@]12CC[C@H]3[C@@H](CCC4=CC(=O)CC[C@@]43C)[C@@H]1CC[C@@H]2O [testosterone]	–	did not affect	did not alter	did not alter	–
pregnenolone sulfate	–	did not affect	but not on ABHD2^L33–E425	weak inhibitory action	–
